{"source": "patent US10696985B1", "about": "“Reversibly crosslinked endosomolytic polymer vesicles for cytosolic drug delivery” (Vanderbilt University, priority 2016, dated 2020)", "key": {"TLR-2": {"target": "T1, TLR-2 (Mus musculus, UniProt Q9EPQ1+Q9QUN7)", "T1 construct": "endogenous in cells; host or cells: RAW264.7 NF-kB reporter cells", "T1 sequence (Q9QUN7 25-784)": "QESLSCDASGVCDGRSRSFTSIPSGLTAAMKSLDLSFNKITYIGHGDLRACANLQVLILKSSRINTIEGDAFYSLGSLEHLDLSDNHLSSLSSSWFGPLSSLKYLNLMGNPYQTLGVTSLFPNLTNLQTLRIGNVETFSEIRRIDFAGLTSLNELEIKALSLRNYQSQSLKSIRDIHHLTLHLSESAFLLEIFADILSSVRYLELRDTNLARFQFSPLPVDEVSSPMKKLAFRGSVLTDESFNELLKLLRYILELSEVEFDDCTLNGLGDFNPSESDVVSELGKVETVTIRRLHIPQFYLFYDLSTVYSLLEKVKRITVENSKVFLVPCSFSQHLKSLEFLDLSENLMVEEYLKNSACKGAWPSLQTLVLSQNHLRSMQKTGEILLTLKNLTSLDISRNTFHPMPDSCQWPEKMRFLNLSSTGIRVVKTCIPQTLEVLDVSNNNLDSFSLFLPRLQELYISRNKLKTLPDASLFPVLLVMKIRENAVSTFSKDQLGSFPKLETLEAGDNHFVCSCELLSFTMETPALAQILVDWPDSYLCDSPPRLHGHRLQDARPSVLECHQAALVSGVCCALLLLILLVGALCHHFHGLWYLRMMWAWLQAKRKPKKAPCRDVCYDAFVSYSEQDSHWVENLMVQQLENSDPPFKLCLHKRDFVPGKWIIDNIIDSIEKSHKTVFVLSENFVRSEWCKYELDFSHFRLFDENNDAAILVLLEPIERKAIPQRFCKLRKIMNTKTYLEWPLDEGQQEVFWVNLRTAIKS", "T1 sequence (Q9EPQ1 25-795 limits assumed)": "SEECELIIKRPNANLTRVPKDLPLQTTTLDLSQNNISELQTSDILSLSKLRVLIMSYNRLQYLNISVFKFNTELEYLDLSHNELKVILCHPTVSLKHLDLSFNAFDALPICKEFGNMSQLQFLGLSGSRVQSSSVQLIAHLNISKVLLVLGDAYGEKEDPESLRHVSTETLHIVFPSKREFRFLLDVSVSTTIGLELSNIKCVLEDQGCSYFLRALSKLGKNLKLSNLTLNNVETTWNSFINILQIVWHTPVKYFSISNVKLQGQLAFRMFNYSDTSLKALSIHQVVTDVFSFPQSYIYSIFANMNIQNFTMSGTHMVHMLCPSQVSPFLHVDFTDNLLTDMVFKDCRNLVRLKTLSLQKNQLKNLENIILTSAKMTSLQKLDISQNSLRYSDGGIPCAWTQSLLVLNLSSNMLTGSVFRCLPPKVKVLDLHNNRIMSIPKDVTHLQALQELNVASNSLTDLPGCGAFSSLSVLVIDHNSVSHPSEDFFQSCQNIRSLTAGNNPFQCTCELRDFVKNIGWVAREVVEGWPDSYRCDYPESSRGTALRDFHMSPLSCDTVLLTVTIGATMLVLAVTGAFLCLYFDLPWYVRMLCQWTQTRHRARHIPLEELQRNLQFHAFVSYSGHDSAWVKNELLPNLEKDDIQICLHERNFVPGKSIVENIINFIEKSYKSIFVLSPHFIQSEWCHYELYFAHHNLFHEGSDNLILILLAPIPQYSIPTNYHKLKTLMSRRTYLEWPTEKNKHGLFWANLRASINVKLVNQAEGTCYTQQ", "assay": "RAW264.7 NF-κB reporter cell assay", "type": "cell-based", "conditions": "incorporated into the PEG-EBP vesicle membrane, versus free Pam3CSK4", "from_the_text": "PEG-EBP polymer vesicles were also shown to serve as a carrier for agonists of pattern recognition receptors (PRRs) that reside on the cell surface. […] The reduced activity of Pam3CSK4 incorporated into vesicles is thought to be primarily related to the ˜50% of Pam3CSK4 molecules that are incorporated into the inner leaflet of the vesicle membrane, and therefore are not accessible for binding to cell surface TLR-2 molecules."}, "[1]": {"assay": "Encapsulation efficiency of cargo in PEG-EBP polymer vesicles", "conditions": "cGAMP within PEG-EBP vesicles; high performance liquid chromatography", "procedure": "Encapsulation efficiency is defined as the percentage of cargo associated with the vesicle after cargo loading and separation of vesicles from unencapsulated cargo. N=number of experiments performed for a specific cargo type.\nFor formulation of polymeric vesicles, 5 mg of the polymer is mixed with 4 μL of ethanol. Upon equilibration, 4 μL of cGAMP solution (0-50 mg/mL in water) is added to the polymer/ethanol gel. […] Upon formation of vesicles, the colloid is diluted into water and sonicated further to generate the PEG-EBP encapsulated cGAMP colloid.\nSolvent composition and stepwise addition amounts were chosen to maximize the vesicle yield of the formulation process while maximizing encapsulant concentration during vesicle self-assembly. […] Particles were crosslinked post assembly via addition of 0.5 molar equivalents of DTT relative to pyidyl disulfide moieties comprising the PEG-EBP colloid. Nanoparticles were readily separated from free cGAMP and crosslinking byproducts via centrifugal ultrafiltration using a 10 kDa cutoff.\nPyridyl disulfide (PDS) moieties were exploited for post-assembly in situ crosslinking of the vesicle membrane via partial reduction of disulfide bonds with DTT."}}, "data": [{"molecule": "Pam3CSK4", "values": [{"measurement": "immunostimulatory activity", "setting": "TLR-2", "result": "partially retained"}]}, {"molecule": "Nc1nc2c(ncn2[C@@H]2O[C@@H]3COP(=O)(O)O[C@H]4[C@@H](O)[C@H](n5cnc6c(N)ncnc65)O[C@@H]4COP(=O)(O)O[C@@H]2[C@@H]3O)c(=O)[nH]1", "note": "[cGAMP, cyclic guanosine monophosphate-adenosine monophosphate]", "values": [{"measurement": "encapsulation efficiency", "setting": "[1]", "result": "38±3", "unit": "%"}]}]}
